Like-named read-outs stand apart in the source and are kept apart here.
Key:
[1] = in vivo; conditions: male, Wistar, rat, im
Procedure: (§1) An analytical column (Waters Spherisorb S5 W (250 mm × 4.6 i.d.; 5 μm particle size)) with guard column (Waters Spherisorb S5 W (30 mm × 4.6 mm i.d.)) was used for the analysis. The mobile phase contained acetonitrile and 50 mM sodium dihydrogen phosphate (17:83; v/v). The pH was adjusted to 3.1 with phosphoric acid ([13]). The sample volume was 40 µL for plasma samples and 90 µL for brain-tissue samples. All chromatograms were obtained at a conditioned temperature (50 °C), and the flow rate was 1.3 mL/min ([13]).
(§2) Male adult Wistar rats (body weight 230 ± 30 g; Anlab Inc., Prague, Czech Republic) were used for pharmacokinetics study. The animals were kept under recommended conditions: standard laboratory food and tap water were available ad libitum. All experimental procedures and protocols were reviewed and approved by the Ethics Committee of the Faculty of Military Health Sciences, University of Defense, Hradec Kralove, Czech Republic. […] Blood samples were collected directly from the heart into heparinized 1.5 mL polythene tubes after 5, 15, 30, 45, 60, 120 and 240 min, and after 24 h (n = 6; six animals in each time interval). The samples were immediately centrifuged at 3000 ×g for 10 min (10 °C), and the plasma obtained was stored at −80 °C until analysis.
(§3) Standard noncompartmental analysis was performed using Kinetica software, version 4.0 (InnaPhase Corporation, Thermo Fisher Scientific Inc., Waltham, MA, USA). Maximum concentration (Cmax) and the time to the maximum concentration (Tmax) were determined directly from the observed data. The area under the mean plasma concentration–time curve from zero up to infinity (AUCtotal) was determined as the sum of the AUC0–24 h and of the extrapolated part, i.e. the ratio of the concentration predicted at the time interval of 24 h and the terminal rate constant λz. The λz was estimated using linear regression of the log-transformed concentrations at interval from 45 min to 24 h plotted against time. The half-life was calculated as t1/2 = ln(2)/λz. […]

[2] = Plasma pharmacokinetics after single i.m. injection in rats (HPLC-UV); conditions: male, Wistar, rat, in vivo, im
Procedure: as §1, §2, §3

[3] = test system: acetylcholinesterase (AChE); set-up: method as in PMID 10641971; conditions: long-lasting, pseudo-irreversible inhibitor; ref [10]; cited from earlier work
[4] = in vivo; conditions: male, Wistar, rat
Procedure: as §1, §2
After perfusion, the skull was opened and the brain was checked visually and subsequently carefully removed; time intervals correspond with blood sampling (5, 15, 30, 45, 60, 120 and 240 min, and after 24 hours; n = 6; the same animals were used). All brains were stored at –80 °C until HPLC analysis ([15]).
Standard noncompartmental analysis was performed using Kinetica software, version 4.0 (InnaPhase Corporation, Thermo Fisher Scientific Inc., Waltham, MA, USA). Maximum concentration (Cmax) and the time to the maximum concentration (Tmax) were determined directly from the observed data. The area under the mean plasma concentration–time curve from zero up to infinity (AUCtotal) was determined as the sum of the AUC0–24 h and of the extrapolated part, i.e. the ratio of the concentration predicted at the time interval of 24 h and the terminal rate constant λz. The λz was estimated using linear regression of the log-transformed concentrations at interval from 45 min to 24 h plotted against time. The half-life was calculated as t1/2 = ln(2)/λz. Other statistical analysis was performed using GraphPad Prism, version 5.0 (GraphPad Software, San Diego, California, USA).
Brain tissues (whole brains) were mechanically crushed under liquid nitrogen. […] Eight-hundred microliter of supernatant was subjected to liquid-liquid extraction as previously described. All assessments were performed in triplicate.

[5] = human, 10 mg/day p.o., HPLC study, ref [7], cited from earlier work

## CCN(C)C(=O)Oc1cccc([C@H](C)N(C)C)c1 [Rivastigmine]
[1]
  CL/F: 690 ± 30 mL/min/kg
  MRT: 43.4 min
[2]
  Vd/F: 19.8 ± 3.87 L/kg
[3]
  duration of AChE inhibition: up to 10 h
[4]
  Kp at 0 min: 0
  Kp at 5 min: 1.74
  Kp at 15 min: 1.48
  Kp at 30 min: 1.7
  Kp at 45 min: 1.15
  Kp at 60 min: 1.13
  Kp at 120 min: 0.176
  Kp at 240 min: 0
  Kp at 24 h: 0
  concentration at 0 min: 0 ng/mL
  concentration at 5 min: 5.23 ± 0.76 ng/mL
  concentration at 15 min: 4.92 ± 0.62 ng/mL
  concentration at 30 min: 4.72 ± 0.51 ng/mL
  concentration at 45 min: 2.73 ± 0.32 ng/mL
  concentration at 60 min: 2.24 ± 0.22 ng/mL
  concentration at 120 min: 0.03 ± 0.02 ng/mL
  concentration at 240 min: 0 ng/mL
  concentration at 24 h: 0 ng/mL

## COc1cc2c(cc1OC)C(=O)C(CC1CCN(Cc3ccccc3)CC1)C2 (stereo not drawn) [Donepezil]
[5]; 12 h after application
  CSF concentration: 5.2 ng/mL
[5]; after 24 h
  CSF concentration: 7.5 ng/mL
